By IC50 is commonly meant the concentration that gives 50% inhibition. As usually defined, the MIC is the lowest concentration that inhibits growth of the organism.

This is an account of results in ChEMBL document CHEMBL5226286, “The application of isatin-based multicomponent-reactions in the quest for new bioactive and druglike molecules” (Eur J Med Chem, 2021).

The nature of one test: cells. The settings on record: Homo sapiens, HCCC9810. Format: functional, cell-based.
For a further test, the system named is Huh-7. Nature of the test: cells. Type of test: functional, cell-based. To be noted: Homo sapiens.
Test [1] deals with T1, NAD-dependent protein deacetylase sirtuin-2 (Homo sapiens, UniProt Q8IXJ6).
T1 sequence (Q8IXJ6 whole entry): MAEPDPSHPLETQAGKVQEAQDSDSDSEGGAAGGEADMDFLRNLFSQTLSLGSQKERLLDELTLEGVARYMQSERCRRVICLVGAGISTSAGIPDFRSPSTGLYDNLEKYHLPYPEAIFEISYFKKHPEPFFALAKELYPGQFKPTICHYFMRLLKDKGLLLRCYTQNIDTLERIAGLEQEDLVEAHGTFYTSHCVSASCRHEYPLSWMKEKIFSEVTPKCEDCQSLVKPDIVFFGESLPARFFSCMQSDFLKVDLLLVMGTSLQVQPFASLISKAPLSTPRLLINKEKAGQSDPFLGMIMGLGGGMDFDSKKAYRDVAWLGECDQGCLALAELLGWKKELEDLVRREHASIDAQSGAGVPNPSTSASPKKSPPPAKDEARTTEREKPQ
Nature of the test: Inhibition of sirtuin 2 (unknown origin).

Test [2] relates to HepG2. Nature of the test: cells. Type of test: functional, cell-based. To be noted: Homo sapiens.
The subject of test [3] is MCF7. Nature of the test: cells. Type of test: functional, cell-based. To be noted: Homo sapiens.
The next test relates to SK-OV-3. Nature of the test: Antiproliferative activity against human SK-OV-3 cells. Format: functional, cell-based.
Another test relates to CCRF-CEM. Nature of the test: Antiproliferative activity against human CCRF-CEM cells. Format: functional, cell-based.
Test [4] concerns Escherichia coli. Nature of the test: Antimicrobial activity against Escherichia coli ATCC 25922. Format: functional.
The subject of test [5] is Escherichia coli. Nature of the test: Antibacterial activity against Escherichia coli incubated for 24 to 48 hrs by agar diffusion well method. To be noted: time 24-48 hrs. Format: functional. (In agar diffusion tests the substance spreads into inoculated agar from a disc or well.)
In test [6] the test system is Streptococcus pneumoniae. Nature of the test: Antibacterial activity against Streptococcus pneumoniae incubated for 24 to 48 hrs by agar diffusion well method. The settings on record: time 24-48 hrs. Format: functional.
In test [7] the test system is Streptococcus pneumoniae. Nature of the test: Antibacterial activity against Streptococcus pneumoniae RCMB 010010 incubated for 24 hrs by agar well diffusion method. Type of test: functional.
Test [8] deals with Pseudomonas aeruginosa. Nature of the test: Antibacterial activity against Pseudomonas aeruginosa ATCC 85327. Type of test: functional.
In test [9] the test system is Pseudomonas aeruginosa. Nature of the test: Antibacterial activity against Pseudomonas aeruginosa incubated for 24 to 48 hrs by agar diffusion well method. Format: functional. The settings on record: time 24-48 hrs.
The subject of test [10] is Bacillus subtilis. Nature of the test: Antibacterial activity against Bacillus subtilis RCMB 010067 incubated for 24 hrs by agar well diffusion method. Format: functional.
Test [11] has as its system Bacillus subtilis. Nature of the test: Antibacterial activity against Bacillus subtilis incubated for 24 to 48 hrs by agar diffusion well method. The settings on record: time 24-48 hrs. Format: functional.
In test [12] the test system is Bacillus subtilis. Nature of the test: Antibacterial activity against Bacillus subtilis. Type of test: functional.
The next test concerns PC-3. Nature of the test: Antiproliferative activity against human PC-3 cells. Type of test: functional, cell-based.
Test [13] deals with HCT-116. Nature of the test: Antiproliferative activity against human HCT-116 cells. Type of test: functional, cell-based.
Test [14] relates to HeLa. Nature of the test: Cytotoxicity against human HeLa cells incubated for 24 hrs by MTT reduction assay. Format: functional, cell-based. For orientation: Tetrazolium dyes change colour on reduction, which living cells bring about.
In test [15] the test system is A549. Nature of the test: Antiproliferative activity against human A549 cells by MTT reduction assay. Format: functional, cell-based.
The test system of another test is SK-N-SH. Nature of the test: Antiproliferative activity against human SK-N-SH cells by MTT reduction assay. Type of test: functional, cell-based.
The subject of test [16] is MCF7. Nature of the test: Antiproliferative activity against human MCF7 cells by MTT reduction assay. Type of test: functional, cell-based.
Test [17] relates to HepG2. Nature of the test: Antiproliferative activity against human HepG2 cells by MTT reduction assay. Format: functional, cell-based.
Test [18] relates to Pseudomonas aeruginosa. Nature of the test: Antibacterial activity against Pseudomonas aeruginosa No.010. Format: functional.
Test [19] relates to Pseudomonas aeruginosa. Nature of the test: Antibacterial activity against Pseudomonas aeruginosa ATCC 27853. Type of test: functional.
In test [20] the test system is Pseudomonas aeruginosa. Nature of the test: Antibacterial activity against multidrug resistant Pseudomonas aeruginosa 025. Type of test: functional.
Test [21] has as its system Pseudomonas aeruginosa. Nature of the test: Antibacterial activity against multidrug resistant Pseudomonas aeruginosa 034. Format: functional.
For test [22], the system named is HeLa. Nature of the test: Anticancer activity against human HeLa cells by MTT assay. Type of test: functional, cell-based.
For another test, the system named is K562. Nature of the test: Antiproliferative activity against human K562 cells. Type of test: functional, cell-based.
Test [23] relates to A549. Nature of the test: Antiproliferative activity against human A549 cells. Format: functional, cell-based.
Test [24] concerns HepG2. Nature of the test: Anticancer activity against human HepG2 cells by MTT assay. Type of test: functional, cell-based.
In test [25] the test system is MCF7. Nature of the test: Anticancer activity against human MCF7 cells by MTT assay. Format: functional, cell-based.
The subject of test [26] is HCT-116. Nature of the test: Anticancer activity against human HCT-116 cells by MTT assay. Format: functional, cell-based.
A short description of test [27]: Antiproliferative activity against human U87 cells. Format: functional, cell-based, U-87MG ATCC. The settings on record: U-87 MG.

Converted amounts (≈) assume the structure as drawn. The source made the active and inactive calls. No cut-off for these calls is given here.

Description for Huh-7: Antiproliferative activity against human Huh-7 cells

Take `CNC(=O)c1cc(Oc2ccc(NC(=O)Nc3ccc(Cl)c(C(F)(F)F)c3)cc2)ccn1` [SORAFENIB]: the IC50 is greater than 10 µM in the test “cells” and 7.1 µM in the test with Huh-7.
In turn, `CCOC(=O)C1=C(N)Oc2cc(C)oc(=O)c2C12C(=O)N(Cc1ccccc1)c1ccccc12` (configuration not stated) registered a 50% inhibitory concentration (IC50) in test [1] of 126 µM.
Turning to `CCOC(=O)C1=C(C)NC(=S)NC12C(=O)Nc1c(Cl)cc(Cl)cc12` (configuration not stated), the IC50 in the test with HepG2 [2] is 28.4 µM; with MCF7 [3], 21.3 µM.
With `O=C1/C(=C/c2ccccc2)CNC[C@]12[C@@H](c1ccccc1)C1CCCN1[C@]21C(=O)Nc2ccccc21` (some centres not stated), the IC50 in the test on SK-OV-3 worked out at 38.9 µM; in the test on CCRF-CEM, 25.2 µM.
Consider GENTAMICIN, for which the minimal inhibitory concentration (MIC) with Escherichia coli [4] was found to be 4 µg/mL; with Escherichia coli [5], 1.95 µg/mL; against Pseudomonas aeruginosa [8], 8 µg/mL; in the test with Pseudomonas aeruginosa [9], 15.6 µg/mL; against Bacillus subtilis [12], 0.125 µg/mL. In addition, the MIC result in the test on Streptococcus pneumoniae [6], in the test on Streptococcus pneumoniae [7], in the test with Bacillus subtilis [10] and with Bacillus subtilis [11] was “inactive” in each case.
Consider `CCOC(=O)C1=C(N)Oc2cc(C)oc(=O)c2C12C(=O)Nc1ccc(Br)cc12` (configuration not stated), for which, in [1], the half-maximal inhibitory concentration (IC50) worked out at 124 µM.
On to `O=C(c1c[nH]c2ccccc12)[C@@H]1[C@@H](c2ccc(Cl)cc2Cl)[C@@H]2CSCN2[C@@]12C(=O)Nc1ccccc12`, for which the 50% inhibitory concentration (IC50) in the test on HepG2 [2] is 7 µM; in the test on PC-3, 6 µM; with HCT-116 [13] it was 9 µM.
Turning to `Cc1cc2c(cc1C)C(Cl)=C(C1C3CCCN3C3(C(=O)Nc4ccc([N+](=O)[O-])cc43)C1C(=O)c1ccccc1)CCC2` (configuration not stated), the IC50 worked out at 3.8 µM in the test with HeLa [14]; 5.6 µM with A549 [15]; 11 µM in the test with SK-N-SH; 7.3 µM in the test with MCF7 [16]; 20 µM in the test on HepG2 [17].
As for `Cc1cc2c(cc1C)C(Cl)=C(C1C3CCCN3C3(C(=O)Nc4ccc(I)cc43)C1C(=O)c1ccccc1)CCC2` (configuration not stated), the half-maximal inhibitory concentration (IC50) in the test on HeLa [14] was found to be 3.8 µM; with A549 [15] it was 15.9 µM; with SK-N-SH it was 5 µM; with MCF7 [16], 8.3 µM; in the test with HepG2 [17], 8.7 µM.
Consider `CCn1cc(C(=O)O)c(=O)c2cc(F)c(N3CCNCC3)cc21` [NORFLOXACIN], for which the MIC in the test on Pseudomonas aeruginosa [18] is 2 µg/mL (≈ 6.26 µM); with Pseudomonas aeruginosa [19], 2 µg/mL (≈ 6.26 µM); with Pseudomonas aeruginosa [20], greater than 64 µg/mL; in the test with Pseudomonas aeruginosa [21], greater than 64 µg/mL.
With `CN1C[C@@H](c2ccccc2Cl)[C@H](C(=O)c2c(O)c3ccccc3[nH]c2=O)[C@@]12C(=O)Nc1ccccc12`, the IC50 in the test with HeLa [22] came to 10.7 µM.
With `Cc1noc([C@@H]2[C@H]3CCCN3[C@]3(C(=O)N(C)c4ccc(F)cc43)[C@@]23C(=O)N(C)c2ccccc23)c1[N+](=O)[O-]`, the IC50 in the test with PC-3 came to 51.6 µM; in the test with K562 it was 25 µM; with A549 [23], 39.7 µM.
As for `CN1C[C@H](c2ccc(Cl)cc2Cl)[C@@H](C(=O)c2cc3ccccc3[nH]2)C12C(=O)Nc1ccccc12` (some centres not stated), the values for the IC50 in the test with HepG2 [24], in the test on MCF7 [25] and in the test on HCT-116 [26] were greater than 50 µM, 15 µM and less than 1 µM, respectively.
In test [27], `O=NN(CCCl)C(=O)NCCCl` [CARMUSTINE] yielded an IC50 of 3.9 µM.
